Data set [1] in a line: Acute toxicity. The data set is classed as in vivo, CFLP mice. The note with it: mouse, in vivo, death rate observed for one week.
Data set [2] can be described thus: Rotarod test (muscle incoordination and ataxia). The data set is classed as in vivo, CFLP mice. The note with it: mouse, in vivo, 1 hour before test. The protocol: (§1) a. Rotarod test: The test was carried out according to the method of Kinnard and Carr (Brit. J. Pharmacol. Exp. Ther. 121, 354 (1957)). […] The ED50 values were calculated from the percentage of the animals falling down within 120 sec.
On the technique in general: Falling from the rotarod earlier than controls is read as motor impairment.

For data set [3], the system named is CFLP mice. In words: Hexobarbital narcosis potentiating effect. The data set is classed as in vivo. The note with it: screen test, i.p., 1 hour before hexobarbital 60 mg./kg. into tail vein; change of sleeping period related to controls. The protocol:
The hexobarbital narcosis potentiating effect was determined by the method of Rumke et al. (Arch. Int. […]. The change of sleeping period was expressed in percent related to the controls.

For data set [4], the system named is CFLP mice. The data set can be described thus: Maximum electroshock (anti-electroshock activity). The data set is classed as in vivo. The note with it: 1 hour before test; for ED50: Mus musculus, 1 h. The text has this: 2. Maximum electroshock stimulus (100 Hz, 30 V, 0.2 sec.) was applied according to the method of Swinyard et al. (Swinyard E. A., Brown W. C., Goodman, L. S.: J. Pharmacol. 106, 319 (1952)). The animals showing no tonix extension on the hind limb upon stimulus were considered as protected.

Data set [5] has as its system CFLP mice. In words: Antimetrazole activity (protection from tonic extensor spasm). The data set is classed as in vivo. The note with it: 1 hour before test, metrazole 125 mg./kg. s.c.; for ED50: Mus musculus, 1 h. The protocol: 1. The first series of examinations was carried out according to the method of Everett and Richards (Everett G. M., Richards R. K.: J. Pharm. Exp. Ther. 81, 402 (1944)). 125 mg./kg. of metrazole were administered subcutaneously to the test animals. 1 hour after the administration the animals protected from tonic extensor spasm and the surviving animals were counted.

The subject of data set [6] is CFLP mice. The data set can be described thus: Acute toxicity. The data set is classed as in vivo. The note with it: i.p.; death rate observed for one week; 10080 min.
Data set [7] deals with CFLP mice. The data set can be described thus: Rotarod test (muscle incoordination and ataxia). In kind it is in vivo. The note with it: for Rotarod ED50 : Antimetrazole ED50: ratio (1) of Table 2, p.o. The protocol:
as §1

Data set [8] can be described thus: Traction test (muscle incoordination and ataxia). The arrangement: species or system CFLP mice. The note with it: mouse, in vivo, po, 1 hour before test; read-out: Traction test ED50. The protocol:
b. Traction test: The test was carried out according to the method of Theobald et al. (Arch. int. Pharmacodyn. 148, 560 (1964)). The two anterior limbs of the test animals were placed onto a horizontal rod so as to let the animals clutch the rod. […] The ED50 values were calculated from the percentage of the animals showing negative response.

Data set [9] relates to CFLP mice. In words: Antagonism of strychnine spasm. The data set is classed as in vivo. The note with it: for ED50: Mus musculus, po, 1 h, read-out: Antistrychnine activity ED50; for Antistrychnine ED50 : Antimetrazole: ratio (2) of Table 2, p.o. The protocol:
Tonic extensor spasm was produced by administering an intraperitoneal dosage of 2 mg./kg. of strychnine to the animals (Kerley T. L., Richards A. G., Begley, R. W., Abren, B. E. and Weaver, L. C: J. Pharmacol. Exp. Ther. 132, 360 (1961)). The animals showing no spasm were considered as protected.

Data set [10] deals with CFLP mice. The data set can be described thus: Narcosis potentiating effect (sodium barbiturate). In kind it is in vivo. The note with it: for ED50: Mus musculus, po, 1 hour before sodium barbiturate 100 mg./kg. i.p.; for Narcosis potentiation ED50 : Antimetrazole ED50: ratio (3) of Table 2, p.o.
Data set [11] has as its system CFLP mice. In words: Disappearance of righting reflex. In kind it is in vivo. The note with it: Mus musculus, po.
The mark [12] stands for this setting: ip, screen test, i.p., read-out: Rotarod ED50.
The mark [13] stands for this setting: ip, screen test, i.p., read-out: Anti-electroshock ED50 ip.
Where [14] appears, read: ip, screen test, i.p., read-out: Antimetrazole ED50.
Where [15] appears, read: po, p.o., 100 Hz, 30 V, 0.2 sec., read-out: Anti-electroshock activity ED50.
Setting [16] is: po, p.o., 95% confidence limit in next line, read-out: Antimetrazole activity ED50.

In general, LD50 refers to the dose at which mortality reaches 50%. The ED50 is the dose at which the effect has come halfway, by size or by number of responders.

Each structure is given as a SMILES string. Where two headings read alike, the source gives them in different places.

As to `CN1C(=O)CN(C(N)=O)C(c2ccccc2)c2cc(Cl)ccc21` (single isomer, unassigned; (+)) [Example 55, (+)-1-Methyl-4-carbamoyl-5-phenyl-7-chloro-1,3,4,5-tetrahydro-2H-1,4-benzodiazepine-2-one], in [1] (ip, read-out: LD50 i.p.), the 50% lethal dose (LD50) at 168 h was 611 mg/kg. Also, the TD50 at 1 h in [2] (setting [12]) was determined as 7 mg/kg. Further, the “Hexobarbital potentiation, %” value in [3] was 368%. Moreover, the values for the ED50 in data set [4] (setting [13]) and in data set [5] (setting [14]) were 10 mg/kg and 1.65 mg/kg, respectively.
`CN1C(=O)CN(C(N)=O)C(c2ccccc2)c2cc(Cl)ccc21` (single isomer, unassigned; (-)) [Example 56, (-)-1-Methyl-4-carbamoyl-5-phenyl-7-chloro-1,3,4,5-tetrahydro-2H-1,4-benzodiazepine-2-one]: the LD50 i.p. in data set [6] came out at 661.2 mg/kg. Moreover, the “Rotarod ED50” value in [7] (screen test, i.p., 1 hour before test, 60 min) was 13.0 mg/kg. For the same molecule, the “Hexobarbital potentiation, %” value in data set [3] is recorded as 112%. Besides, the “Anti-electroshock ED50 ip.” value in [4] (screen test, i.p., 60 min) was determined as 8.4 mg/kg. Further, in [5] (screen test, i.p., 60 min), the “Antimetrazole ED50” value stood at 2.2 mg/kg.
Take `CNC1=Nc2ccc(Cl)cc2C(c2ccccc2)=[N+]([O-])C1` [Chlorodiazepoxide, reference compound]: in data set [1] (po, read-out: Acute toxicity (LD50)), the LD50 at 168 h turned out to be 850 mg/kg. Also, the TD50 at 1 h came to 31.2 mg/kg in data set [8] and 12.2 mg/kg in data set [2] (po, 12/min., 120 sec., read-out: Rotarod test ED50). Besides, the “Rotarod ED50 : Antimetrazole ED50” value in data set [7] came to 4.9. The median effective dose (ED50) in data set [9] is 28.4 mg/kg; in data set [4] (setting [15]) it was 23.5 mg/kg; in data set [5] (setting [16]) it was 2.47 mg/kg; in [10], 8.1 mg/kg; in [11] it was 436 mg/kg. In addition, in data set [9], the “Antistrychnine ED50 : Antimetrazole” value stood at 11.5. Further, in [10], the “Narcosis potentiation ED50 : Antimetrazole ED50” value stood at 3.3.
`CN1C(=O)CN=C(c2ccccc2)c2cc(Cl)ccc21` [Diazepam]: the “Rotarod ED50 : Antimetrazole ED50” value in [7] is given as 4.3. Besides, the ED50 in data set [9] came to 5.71 mg/kg; in [4] (setting [15]), 8.29 mg/kg; in data set [5] (setting [16]), 0.75 mg/kg; in data set [10] it was 3.9 mg/kg; in data set [11], 238 mg/kg. Moreover, the “Antistrychnine ED50 : Antimetrazole” value in data set [9] turned out to be 7.6. Moreover, the “Narcosis potentiation ED50 : Antimetrazole ED50” value in data set [10] stood at 5.2.
With `CCOC(=O)N1CC(=O)Nc2ccc([N+](=O)[O-])cc2C1c1ccccc1` (centres unmarked) [Example 2, 4-Ethoxycarbonyl-5-phenyl-7-nitro-1,3,4,5-tetrahydro-2H-1,4-benzodiazepine-2-one], the LD50 at 168 h in data set [1] (ip, read-out: LD50 i.p.) is greater than 1600 mg/kg. Further, in [3], the “Hexobarbital potentiation, %” value turned out to be 168%. Moreover, the median effective dose (ED50) in data set [4] (setting [13]) turned out to be 14 mg/kg; in data set [5] (setting [14]), 12.5 mg/kg.
As for `NC(=O)N1CC(=O)Nc2ccc(Cl)cc2C1c1ccccc1` (centres unmarked) [Example 13, 4-Carbamoyl-5-phenyl-7-chloro-1,3,4,5-tetrahydro-2H-1,4-benzodiazepine-2-on], the median lethal dose (LD50) at 168 h in [1] (ip, read-out: LD50 i.p.) came out at 367 mg/kg. For the same molecule, in data set [2] (setting [12]), the TD50 at 1 h was found to be 13.5 mg/kg. In addition, the “Hexobarbital potentiation, %” value in data set [3] was 89%. The ED50 is 14 mg/kg in data set [4] (setting [13]) and 4.9 mg/kg in data set [5] (setting [14]).
Regarding `CNC(=O)N1CC(=O)Nc2ccc([N+](=O)[O-])cc2C1c1ccccc1` (centres unmarked) [Example 14, 4-Methylcarbamoyl-5-phenyl-7-nitro-1,3,4,5-tetrahydro-2H-1,4-benzodiazepine-2-one], in data set [1] (ip, read-out: LD50 i.p.), the LD50 at 168 h came out at 936 mg/kg. The “Hexobarbital potentiation, %” value in data set [3] was determined as 75%. Besides, the ED50 in data set [4] (setting [13]) amounted to 20 mg/kg; in data set [5] (setting [14]) it was 19.5 mg/kg.
The corresponding values for `CNC(=O)N1CC(=O)Nc2ccccc2C1c1ccccc1` (centres unmarked) [Example 15, 4-Methylcarbamoyl-5-phenyl-1,3,4,5-tetrahydro-2H-1,4-benzodiazepine-2-one] are greater than 500 mg/kg, 93%, 20 mg/kg and 20 mg/kg.
The corresponding values for `CNC(=O)N1CC(=O)Nc2ccc(Cl)cc2C1c1ccccc1` (centres unmarked) [Example 16, 4-Methylcarbamoyl-5-phenyl-7-chloro-1,3,4,5-tetrahydro-2H-1,4-benzodiazepine-2-one] are 800 mg/kg, 104%, 14 mg/kg and 4.1 mg/kg.
The corresponding values for `CCCCNC(=O)N1CC(=O)Nc2ccc([N+](=O)[O-])cc2C1c1ccccc1` (centres unmarked) [Example 18, 4-n-Butylcarbamoyl-5-phenyl-7-nitro-1,3,4,5-tetrahydro-2H-1,4-benzodiazepine-2-one] are 320 mg/kg, 77%, 20 mg/kg and 14 mg/kg.
For `CC(NC(=O)N1CC(=O)N(C)c2ccc(Cl)cc2C1c1ccccc1)c1ccccc1` (centres unmarked) [Example 24, 1-Methyl-4-(1-methyl-benzylcarbamoyl)-5-phenyl-7-chloro-1,3,4,5-tetrahydro-2H-1,4-benzodiazepine-2-one], the LD50 at 168 h in data set [1] (ip, read-out: LD50 i.p.) stood at 271 mg/kg. In addition, the “Hexobarbital potentiation, %” value in data set [3] came out at 96%. For the same molecule, the ED50 in [4] (setting [13]) came to 20 mg/kg; in data set [5] (setting [14]) it was 13.5 mg/kg.
On to `CC(=O)N1CC(=O)N(C)c2ccc(Cl)cc2C1c1ccccc1` (centres unmarked) [Example 28, 1-Methyl-4-acetyl-5-phenyl-7-chloro-1,3,4,5-tetrahydro-2H-1,4-benzodiazepine-2-one], for which, in data set [1] (ip, read-out: LD50 i.p.), the LD50 at 168 h stood at 312 mg/kg. Moreover, the “Hexobarbital potentiation, %” value in data set [3] came out at 125%. The ED50 in data set [4] (setting [13]) is 20 mg/kg; in data set [5] (setting [14]), 7 mg/kg.
For `CN1C(=O)CN(C(=O)c2ccccc2Cl)C(c2ccccc2)c2cc(Cl)ccc21` (centres unmarked) [Example 31, 1-Methyl-4-(o-chlorobenzoyl)-5-phenyl-7-chloro-1,3,4,5-tetrahydro-2H-1,4-benzodiazepine-2-one] the same measures were greater than 1600 mg/kg, 85%, 20 mg/kg and 14 mg/kg.
Take `CN1C(=O)CN(C=O)C(c2ccccc2)c2cc(Cl)ccc21` (centres unmarked) [Example 33, 1-Methyl-4-formyl-5-phenyl-7-chloro-1,3,4,5-tetrahydro-2H-1,4-benzodiazepine-2-one]: the LD50 at 168 h in data set [1] (ip, read-out: LD50 i.p.) was 688 mg/kg. In addition, the TD50 at 1 h in data set [2] (setting [12]) worked out at 23 mg/kg. The “Hexobarbital potentiation, %” value in [3] is listed as 110%. Also, the median effective dose (ED50) in data set [4] (setting [13]) came out at 14 mg/kg; in [5] (setting [14]), 3.4 mg/kg.
